Measured values taken from patent US8501729B2 (Albany Molecular Research, Inc., priority 2008, dated 2013).
Read-outs that look alike come from different tables or passages of the source.

What was measured:
human 5-HT3 receptor = human 5-HT3 receptor (Homo sapiens (Human), UniProt P46098); experiment: radioligand binding assay (SPA format), [9-methyl-3H]BRL-43694 displacement
Protocol: The relative affinity of the various compounds for the human 5-HT3 receptor was measured in a radioligand binding assay, using a scintillation proximity assay (SPA) format. Test compounds were dissolved to 10 mM in 100% DMSO, then serially diluted at 10× assay concentrations in 100% DMSO in 96-well polypropylene plates and further diluted to 4× assay concentrations with the assay buffer. […] Binding reactions were set up in wells of PicoPlates-96 (Perkin Elmer, Waltham, Mass.) by adding consecutively 50 μL, of each competing compound or buffer, SPA beads, the radioligand and 5-HT3 receptor membranes. After an overnight incubation at room temperature on a Nutator mixer, plates were centrifuged for 15 min at 1,500 rpm, followed by incubation in the dark for 30 min. Radioactivity was counted in the TopCount microplate counter (Perkin Elmer) for 5 min. […] Specific binding was determined by subtracting nonspecific binding from total binding. All experiments were performed in duplicate using ten concentrations of competing ligand, with ondansetron included as a control in every run. IC50 values were determined from specific binding data using XLfit4.1 curve fitting software from IDBS Ltd. The inhibition constant (Ki) was calculated from the Cheng Prusoff equation: (Ki=IC50/(1+(L/KD)), where L=concentration of radioligand in the assay, and KD=affinity of the radioligand for the receptor.

[1] = target: recombinant human 5-HT3A receptors (Homo sapiens (Human), UniProt P46098); experiment: agonist activity (Ca2+ fluorescence, Fluo-4) in HEK293 cells expressing the h5-HT3A receptor subunit; format: cell-based; conditions: for activation at 10 µM: HEK293, read-out: HEK293 h5-HT3A % agonist response
Chain of recombinant human 5-HT3A receptors (P46098 24-478): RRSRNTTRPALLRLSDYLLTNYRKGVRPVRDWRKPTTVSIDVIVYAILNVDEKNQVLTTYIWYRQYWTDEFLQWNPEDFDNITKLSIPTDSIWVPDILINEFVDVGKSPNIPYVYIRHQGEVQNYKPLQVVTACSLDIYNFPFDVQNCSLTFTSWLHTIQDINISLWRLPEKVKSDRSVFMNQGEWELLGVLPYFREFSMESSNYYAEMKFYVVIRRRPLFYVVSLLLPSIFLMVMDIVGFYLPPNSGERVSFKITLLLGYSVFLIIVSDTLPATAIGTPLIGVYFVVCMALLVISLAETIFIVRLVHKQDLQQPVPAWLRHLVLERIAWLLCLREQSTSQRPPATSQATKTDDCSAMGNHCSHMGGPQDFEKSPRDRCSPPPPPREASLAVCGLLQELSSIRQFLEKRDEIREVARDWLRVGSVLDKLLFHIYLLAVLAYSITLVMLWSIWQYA
Protocol: Human embryonic kidney (HEK293) cells expressing the h5-HT3A receptor subunit were seeded directly into poly-D-lysine coated, black-walled, clear bottomed, 96 well plates with approximately 1×10^5 cells per well. After 48 hrs incubation in DMEM growth media (100 μL), cells were washed twice (each 200 μL) in Hank's balanced salt solution (Invitrogen) before incubation (1 hr) with Fluo-4 acetoxymethyl (AM) ester (100 μL, 2.5 μM; Molecular Probes). Cells were washed twice (each 200 μL) in Hank's balanced salt solution and incubated for a further 30 mins in Hank's balanced salt solution (100 μL) prior to assay (25° C.). Alteration in [Ca^2+], was measured (relative fluorescence units [RFU]) using a Flexstation (excitation 488 nm and emission 515 nm; frequency of recording 3 sec). After recording for at least 80 sec, vehicle (Hank's balanced salt solution) or drug was automatically administered to the well (50 μL). Baseline was calculated from the 5 data points immediately prior to the first drug administration and the maximum response was that achieved over the 240 sec following drug administration. In all experiments the muscarinic receptor agonist carbachol (1 mM) was added 240 sec after the test drug administration.

5-HT3 receptors = 5-HT3 receptors (Mus musculus (Mouse), UniProt P23979); experiment: von Bezold-Jarisch model in vivo: inhibition of 5-HT induced bradycardia; conditions: 60 min before 5-HT 0.1 mg/kg IV, highest oral dose tested
Chain of 5-HT3 receptors (P23979 24-489): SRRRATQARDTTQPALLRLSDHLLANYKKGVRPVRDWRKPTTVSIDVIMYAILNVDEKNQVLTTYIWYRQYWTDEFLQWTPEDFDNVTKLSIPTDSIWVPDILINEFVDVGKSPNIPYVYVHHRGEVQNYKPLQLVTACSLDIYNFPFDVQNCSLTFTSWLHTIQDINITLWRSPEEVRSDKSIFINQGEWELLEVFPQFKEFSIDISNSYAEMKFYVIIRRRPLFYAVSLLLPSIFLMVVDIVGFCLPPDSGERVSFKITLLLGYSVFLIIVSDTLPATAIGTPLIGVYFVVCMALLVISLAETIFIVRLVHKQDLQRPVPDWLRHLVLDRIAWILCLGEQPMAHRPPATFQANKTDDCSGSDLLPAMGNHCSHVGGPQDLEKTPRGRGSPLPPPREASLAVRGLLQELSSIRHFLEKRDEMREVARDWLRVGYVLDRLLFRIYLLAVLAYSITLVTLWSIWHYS
Protocol: This is a well characterized and widely used model to assess 5-HT3 receptor function in vivo (King et al., 5-Hydroxtryptamine-3 Receptor Antagonists, CRC Press, pp. 74-75 (1993), which is hereby incorporated by reference in its entirety). Certain compounds (Table 1) were evaluated for their ability to inhibit serotonin induced bradycardia in vivo in the mouse (Saxena et al., Arch. Int. Pharmacodyn., 277:235-252 (1985), which is hereby incorporated by reference in its entirety). Test substances and vehicle [2% Tween 80] were each administered orally to a group of 5 male CD-1(Crl.) mice each weighing 24±2 g. A dosing volume of 10 mL/kg was used. Sixty minutes later, 5-HT (0.1 mg/kg IV)-induced bradycardia was recorded in urethane (2250 mg/kg IP, given 10 minutes before 5-HT)-anesthetized animals.

[2] = human 5-HT3 receptor membranes, 10 nM [3H]BRL-43694, Ki from Cheng Prusoff equation, read-out: h5-HT3A Ki

Chain of human 5-HT3 receptor (P46098 24-478): as the sequence (P46098 24-478) above

Row | Structure (SMILES) | Ki (human 5-HT3 receptor) [nM] | activation at 10 µM [1] [%] | Ki (human 5-HT3 receptor; [2]) [nM] | also measured
1 | Cn1nc2c3c(cccc31)C(=O)N([C@@H]1CN3CCC1CC3)C2 [Example 6, (S)-2-Methyl-7-(quinuclidin-3-yl)-7,8-dihydropyrazolo[3,4,5-de]isoquinolin-6(2H)-one] | 1 |  |  | 
2 | O=C1c2cccc3[nH]nc(c23)CN1[C@H]1CN2CCC1CC2 [Example 16, (R)-7-(Quinuclidin-3-yl)-7,8-dihydropyrazolo[3,4,5-de]isoquinolin-6(2H)-one] |  | 35 |  | 
3 | O=C1c2cccc3c2c(nn3Cc2ccccc2)CN1[C@H]1CN2CCC1CC2 [Example 17] | 5 |  |  | 
4 | CN1C2CCCC1CC(N1Cc3nn(C)c4cccc(c34)C1=O)C2 (stereo not drawn) [Example 22, 7-(Endo-N-(9-methyl-9-azabicyclo[3.3.1]nonan-3-yl))-2-methyl-7,8-dihydropyrazolo[3,4,5-de]isoquinolin-6(2H)-one] | 34 |  |  | 
5 | O=C1c2cccc3c2c(cn3-c2ccc(F)cc2)CCN1[C@H]1CN2CCC1CC2 [Example 36, (R)-6-(4-fluorophenyl)-2-(quinuclidin-3-yl)-2,3,4,6-tetrahydro-1H-azepino[5,4,3-cd]indol-1-one] |  |  |  | inhibition at 10 µM (human 5-HT3 receptor; 10 μM, read-out: h5-HT3A inhibition @ 10 μM): 49%
6 | Cn1cc(C(=O)[C@@H]2CCc3nc[nH]c3C2)c2ccccc21 [Ramosetron, reference compound] |  |  | 0.06 | Inhibition of 5-HT Induced Bradycardia in Mice (5-HT3 receptors; 0.1 mg/kg oral): 77% @ 0.1 mg/kg
7 | Cn1nc2c3c(cc(F)cc31)C(=O)N([C@H]1CN3CCC1CC3)C2 [Example 13] |  | 6 |  | 
8 | O=C1c2cccc3[nH]cc(c23)CCN1[C@H]1CN2CCC1CC2 [Example 33, (R)-2-(Quinuclidin-3-yl)-2,3,4,6-tetrahydro-1H-azepino[5,4,3-cd]indol-1-one] |  | 14 | 49 | 
9 | CCn1nc2c3c(cccc31)C(=O)N([C@@H]1CN3CCC1CC3)C2 [Example 8, (S)-2-ethyl-7-(quinuclidin-3-yl)-7,8-dihydropyrazolo[3,4,5-de]isoquinolin-6(2H)-one] | 1 |  |  | 
10 | CN1C2CCC1CC(N1Cc3nn(C)c4cccc(c34)C1=O)C2 (stereo not drawn) [Example 38, Endo-2-methyl-7-(8-methyl-8-azabicyclo[3.2.1]octan-3-yl)-7,8-dihydropyrazolo[3,4,5-de]isoquinolin-6(2H)-one] | 59 |  |  | 
11 | COc1ccc(-n2nc3c4c(cccc42)C(=O)N([C@H]2CN4CCC2CC4)C3)cc1 [Example 20] | 57 |  |  | 
12 | Cn1cc2c3c(cccc31)C(=O)N([C@@H]1CN3CCC1CC3)CC2 [Example 31, (S)-6-methyl-2-(quinuclidin-3-yl)-2,3,4,6-tetrahydro-1H-azepino[5,4,3-cd]indol-1-one] |  | 5 | 1 | 
13 | CC(C)n1nc2c3c(cccc31)C(=O)N([C@H]1CN3CCC1CC3)C2 [Example 15, (R)-2-Isopropyl-7-(quinuclidin-3-yl)-7,8-dihydropyrazolo[3,4,5-de]isoquinolin-6(2H)-one] |  | 3 |  | 
14 | O=C1c2cccc3c2c(nn3-c2ccc(Cl)cc2)CN1[C@H]1CN2CCC1CC2 [Example 19] | 68 |  |  | 
15 | Cc1[nH]cnc1CN1CCc2c(c3ccccc3n2C)C1=O [Alosetron, reference compound] |  |  |  | Inhibition of 5-HT Induced Bradycardia in Mice (5-HT3 receptors; 1 mg/kg oral): 95% @ 1 mg/kg
16 | O=C1c2cccc3[nH]cc(c23)CCN1[C@@H]1CN2CCC1CC2 [Example 29, (S)-2-(Quinuclidin-3-yl)-2,3,4,6-tetrahydro-1H-azepino[5,4,3-cd]indol-1-one] |  |  | 3 | Inhibition of 5-HT Induced Bradycardia in Mice (5-HT3 receptors; 1 mg/kg oral): 94% @ 1 mg/kg; HEK293 h5-HT3A % agonist response ([1]; at 10 μM, normalized to the response of 5-HT (100% at 3 μM), NR = no response): 17%
17 | Cn1nc2c3c(cccc31)C(=O)N([C@H]1CN3CCC1CC3)C2 [Example 12, (R)-2-Methyl-7-(quinuclidin-3-yl)-7,8-dihydropyrazolo[3,4,5-de]isoquinolin-6(2H)-one] | 2 | 6 |  | 
18 | Cn1cc2c3c(cccc31)C(=O)N([C@@H]1CN3CCC1CC3)C2 [Example 4, (S)-5-Methyl-2-(quinuclidin-8-yl)-2,3-dihydropyrrolo[4,3,2-de]isoquinolin-1(5H)-one] |  |  | 1 | 
19 | CN1C2CCCC1CC(N1CCc3cn(C)c4cccc(c34)C1=O)C2 (stereo not drawn) [Example 37, Endo-6-methyl-2-(9-methyl-9-azabicyclo[3.3.1]nonan-3-yl)-2,3,4,6-tetrahydro-1H-azepino[5,4,3-cd]indol-1-one] |  |  | 267 | 
20 | CCn1nc2c3c(cccc31)C(=O)N([C@H]1CN3CCC1CC3)C2 [Example 14, (R)-2-Ethyl-7-(quinuclidin-3-yl)-7,8-dihydropyrazolo[3,4,5-de]isoquinolin-6(2H)-one] |  | 4 |  | 
21 | O=C1c2cccc3c2c(cn3Cc2ccccc2)CCN1[C@H]1CN2CCC1CC2 [Example 35, (R)-6-benzyl-2-(quinuclidin-3-yl)-2,3,4,6-tetrahydro-1H-azepino[5,4,3-cd]indol-1-one] |  |  | 13 | 
22 | O=C1c2cccc3c2c(cn3Cc2ccccc2)CCN1[C@@H]1CN2CCC1CC2 [Example 32, (S)-6-benzyl-2-(quinuclidin-3-yl)-2,3,4,6-tetrahydro-1H-azepino[5,4,3-cd]indol-1-one] |  |  | 1 | 
23 | CC(C)Cn1nc2c3c(cccc31)C(=O)N([C@@H]1CN3CCC1CC3)C2 [Example 9] | 2 |  |  | 
24 | O=C1c2cc(Br)cc3[nH]nc(c23)CN1[C@H]1CN2CCC1CC2 [Example 21] | 1 |  |  | 
25 | CN1CC2CCCC1CC(N1Cc3cn(C)c4cccc(c34)C1=O)C2 (stereo not drawn) [Example 5, Endo-5-methyl-2-(9-methyl-9-azabicyclo[3.3.1]nonan-3-yl)-2,3-dihydropyrrolo[4,3,2-de]isoquinolin-1(5H)-one] |  |  | 13 | 
26 | Cn1cc2c3c(cccc31)C(=O)N([C@H]1CN3CCC1CC3)CC2 [Example 34, (R)-6-methyl-2-(quinuclidin-3-yl)-2,3,4,6-tetrahydro-1H-azepino[5,4,3-cd]indol-1-one] |  | 13 | 8 | Inhibition of 5-HT Induced Bradycardia in Mice (5-HT3 receptors; 3 mg/kg oral): 88% @ 3 mg/kg
